System: white tail deer
Experiment: 12-month field test of repellent at twenty-one monitored test sites (tracks and browsing damage)
Format: in vivo, Odocoileus virginianus
Details: within 60-day application periods; regular and consistent use
Description: The performance of repellent composition of the present invention was evaluated by the inventor of the present invention in a study that lasted for approximately one year using twenty-one monitored test sites to field test the effectiveness of the composition that included butyl lactate. These sites each had three monitored areas: formulation with butyl lactate (1), same formulation without butyl lactate (2), and control (3), each approximately 100-200 square feet in size. Due to the proximity of the sites, the range of climates, food sources and types of species were consistent, making it easy to assess the repellent's effectiveness, which was evaluated by means of visual inspections and rating for animal tracks around and in the areas, and browsing damage to the plant material.

## CCCCOC(=O)C(C)O (stereo not shown) [Butyl lactate]
  duration of decreased white tail deer damage, presence and entry into treated areas: more than 30 days
